Test results reported in article PMC7708446, “^18F-meta-fluorobenzylguanidine (^18F-mFBG) to monitor changes in norepinephrine transporter expression in response to therapeutic intervention in neuroblastoma models” (Scientific Reports, 2020).
Marks after values point to notes of the source that are not given here.

Experiments:
[1] = biological target: T1, NET-1 (Homo sapiens, UniProt P23975); assay: ^18F-mFBG / ^123I-mIBG uptake in NB cell lines with and without desipramine; assay type: cell-based; conditions: 1 h at 37 °C, rank among Kelly, SK-N-SH, NBLS
T1 construct: SK-N-SH, SK-N-BE(2)C, Kelly, NBLS human NB cell lines; endogenous in cells; host or cells: SK-N-SH, SK-N-BE(2)C, Kelly, NBLS human neuroblastoma cell lines
Excerpt: Figure 1 (a) Simplified radiosynthesis scheme of ^18F-mFBG by copper-mediated deborylation. (b) Total NET-1 protein expression in selected NB cell lines determined by Western blot. Full length blots are presented in Supplementary Figure WB1. […] Data are presented as mean ± SEM, n ≥ 2 per group, performed in triplicate. Graphs are generated using GraphPad Prism (v 8.4.1), https://www.graphpad.com.
For each cell line the cell-associated radioactivity was normalised to the number of cells and then each group was presented as a percentage of the signal acquired for SK-N-BE(2)C cells (mean of n = 3 independent experiments performed in triplicate ± SEM).

[2] = system: SK-N-BE(2)C xenografts; assay: Ex vivo biodistribution (γ-counter), mice bearing SK-N-BE(2)C xenografts; assay type: in vivo; conditions: for ^18F-mFBG biodistribution 4 h p.i., Blood / ^18F-mFBG biodistribution 4 h p.i., Bone / ^18F-mFBG biodistribution 4 h p.i., Brown adipose / ^18F-mFBG biodistribution 4 h p.i., Heart / ^18F-mFBG biodistribution 4 h p.i., Kidney / ^18F-mFBG biodistribution 4 h p.i., Liver / ^18F-mFBG biodistribution 4 h p.i., Lungs / ^18F-mFBG biodistribution 4 h p.i., Muscle / ^18F-mFBG biodistribution 4 h p.i., Pancreas / ^18F-mFBG biodistribution 4 h p.i., Small intestine / ^18F-mFBG biodistribution 4 h p.i., Spleen / ^18F-mFBG biodistribution 4 h p.i., Tumour / ^18F-mFBG biodistribution 4 h p.i., Tumour:blood / ^18F-mFBG biodistribution 4 h p.i., Tumour:muscle: SK-N-BE(2)C
Method: All studies were conducted in compliance with licenses issued under the UK Animals (Scientific Procedures) Act 1986 and approved by the Institute of Cancer Research Animal Welfare and Ethical Review Body (AWERB) according to the United Kingdom National Cancer Research Institute Guidelines for Animal Welfare in Cancer Research (project license PCC916B22, Animals in Science Regulation Unit, Home Office Science, London, UK)[65]. Female Nu(NCr)-Foxn1nu mice (5–7 weeks; 20–22 g) obtained from an in-house breeding colony were used in the studies. Animals were housed in a temperature-controlled facility with 12 h on–12 h off light cycle and provided water and laboratory rodent food ad libitum. Subcutaneous xenografts were generated by injection of either Kelly (5 × 10^6/0.1 mL PBS/Matrigel 30% v/v; BD Matrigel Matrix, BD Bioscience, San Jose, California, US) or SK-N-BE(2)C (1 × 10^6/0.1 mL PBS/Matrigel) into the lower flank. For the treatment studies, AZD2014 stock solution in DMSO was diluted in PEG400 to a final concentration of 2 mg/mL (10% DMSO maximum). When tumours reached ~ 100 mm^3 (calliper measurements using formula: Volume = (Width(2) × Length)/2), mice were treated daily, for a total of either 1, 3 or 7 days, by oral gavage with AZD2014 (20 or 25 mg/kg/day) or vehicle control. Mice were monitored daily for body weight or other adverse effects.
When the tumours reached approximately 100–200 mm^3, mice were anaesthetised with an isoflurane/O2 mixture (1.5–2.0% v/v) and intravenously injected with either ^18F-mFBG (~ 7.5 MBq) or ^123I-mIBG (~ 20 MBq). Mice were then imaged using an Albira PET/SPECT/CT scanner (Bruker, Coventry, UK). Whole body PET static images were acquired after 1 and 4 h post-injection (p.i.) for 10 min with an energy window of 358 to 664 keV followed by CT acquisition. Acquisition, reconstruction and image analysis were performed as described previously. Following the final scan, the mice were sacrificed and the major organs were excised, weighed and their associated radioactivity was measured using a γ-counter. Biodistribution and image quantification were expressed as a percentage of injected dose per gram of tissue (%ID/g), whereby 1 cm^3 on PET acquisitions were assumed to equal 1 g (n ≥ 3 mice ± SD).

[3] = SK-N-BE(2)C xenografts, 4 h p.i.

T1 sequence (P23975 whole entry): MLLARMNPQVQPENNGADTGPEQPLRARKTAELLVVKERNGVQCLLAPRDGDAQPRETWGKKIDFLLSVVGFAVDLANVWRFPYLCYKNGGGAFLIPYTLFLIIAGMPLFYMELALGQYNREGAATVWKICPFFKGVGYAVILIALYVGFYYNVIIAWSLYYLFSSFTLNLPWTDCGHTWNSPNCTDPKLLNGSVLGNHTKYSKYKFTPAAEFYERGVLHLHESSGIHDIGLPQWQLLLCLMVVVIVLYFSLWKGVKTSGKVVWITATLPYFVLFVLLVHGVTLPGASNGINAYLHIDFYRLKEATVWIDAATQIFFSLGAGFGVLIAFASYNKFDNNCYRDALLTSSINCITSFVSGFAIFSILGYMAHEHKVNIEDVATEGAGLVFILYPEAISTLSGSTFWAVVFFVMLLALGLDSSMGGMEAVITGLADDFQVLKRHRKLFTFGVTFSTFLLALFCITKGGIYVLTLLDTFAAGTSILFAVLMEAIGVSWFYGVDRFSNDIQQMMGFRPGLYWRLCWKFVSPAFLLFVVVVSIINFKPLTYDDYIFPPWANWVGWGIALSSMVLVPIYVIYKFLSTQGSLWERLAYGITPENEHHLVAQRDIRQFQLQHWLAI

## N=C(N)NCc1cccc([18F])c1 [^18F-mFBG, ^18F-meta-fluorobenzylguanidine]
[1]
  cell-associated radioactivity, SK-N-BE(2)C: greatest uptake
[1]; SK-N-BE(2)C
  cell-associated radioactivity, Kelly: least uptake
[2]; [3]
  Tumour-to-blood ratio: 17.69 ± 10.00
  tumour-to-muscle ratio: 6.24 ± 3.64
[2]; SK-N-BE(2)C xenografts, 4 h p.i., n = 5
  tumour uptake: 2.96 ± 1.38 %ID/g
[2]; 3 Day AZD2014 (20 mg/kg/day)
  ^18F-mFBG biodistribution 4 h p.i., Blood: 0.16 ± 0.02 %ID/g
  ^18F-mFBG biodistribution 4 h p.i., Bone: 2.42 ± 2.57 %ID/g
  ^18F-mFBG biodistribution 4 h p.i., Brown adipose: 5.32 ± 1.51^b %ID/g
  ^18F-mFBG biodistribution 4 h p.i., Heart: 3.20 ± 0.43^a %ID/g
  ^18F-mFBG biodistribution 4 h p.i., Kidney: 0.89 ± 0.13 %ID/g
  ^18F-mFBG biodistribution 4 h p.i., Liver: 1.74 ± 0.23 %ID/g
  ^18F-mFBG biodistribution 4 h p.i., Lungs: 1.04 ± 0.12 %ID/g
  ^18F-mFBG biodistribution 4 h p.i., Muscle: 0.55 ± 0.09 %ID/g
  ^18F-mFBG biodistribution 4 h p.i., Pancreas: 1.29 ± 0.51 %ID/g
  ^18F-mFBG biodistribution 4 h p.i., Small intestine: 4.88 ± 1.28 %ID/g
  ^18F-mFBG biodistribution 4 h p.i., Spleen: 2.27 ± 1.06 %ID/g
  ^18F-mFBG biodistribution 4 h p.i., Tumour: 3.95 ± 1.53 %ID/g
  ^18F-mFBG biodistribution 4 h p.i., Tumour:blood: 23.76 ± 6.20
  ^18F-mFBG biodistribution 4 h p.i., Tumour:muscle: 7.06 ± 1.79
[2]; 1 day AZD2014 (20 mg/kg/day)
  ^18F-mFBG biodistribution 4 h p.i., Blood: 0.18 ± 0.04 %ID/g
  ^18F-mFBG biodistribution 4 h p.i., Bone: 4.55 ± 2.15^c %ID/g
  ^18F-mFBG biodistribution 4 h p.i., Brown adipose: 5.47 ± 0.45^b %ID/g
  ^18F-mFBG biodistribution 4 h p.i., Heart: 4.34 ± 2.38 %ID/g
  ^18F-mFBG biodistribution 4 h p.i., Kidney: 0.98 ± 0.04 %ID/g
  ^18F-mFBG biodistribution 4 h p.i., Liver: 1.63 ± 0.69 %ID/g
  ^18F-mFBG biodistribution 4 h p.i., Lungs: 1.27 ± 0.68 %ID/g
  ^18F-mFBG biodistribution 4 h p.i., Muscle: 0.59 ± 0.16 %ID/g
  ^18F-mFBG biodistribution 4 h p.i., Pancreas: 1.09 ± 0.42 %ID/g
  ^18F-mFBG biodistribution 4 h p.i., Small intestine: 4.79 ± 1.21 %ID/g
  ^18F-mFBG biodistribution 4 h p.i., Spleen: 2.93 ± 0.82 %ID/g
  ^18F-mFBG biodistribution 4 h p.i., Tumour: 3.29 ± 1.01 %ID/g
  ^18F-mFBG biodistribution 4 h p.i., Tumour:blood: 17.72 ± 2.35
  ^18F-mFBG biodistribution 4 h p.i., Tumour:muscle: 5.74 ± 1.77
[2]; 1 day vehicle
  ^18F-mFBG biodistribution 4 h p.i., Blood: 0.18 ± 0.02 %ID/g
  ^18F-mFBG biodistribution 4 h p.i., Bone: 4.98 ± 2.18^c %ID/g
  ^18F-mFBG biodistribution 4 h p.i., Brown adipose: 5.14 ± 0.38^b %ID/g
  ^18F-mFBG biodistribution 4 h p.i., Heart: 4.38 ± 1.68 %ID/g
  ^18F-mFBG biodistribution 4 h p.i., Kidney: 0.79 ± 0.36 %ID/g
  ^18F-mFBG biodistribution 4 h p.i., Liver: 1.94 ± 0.30 %ID/g
  ^18F-mFBG biodistribution 4 h p.i., Lungs: 1.22 ± 0.37 %ID/g
  ^18F-mFBG biodistribution 4 h p.i., Muscle: 0.60 ± 0.13 %ID/g
  ^18F-mFBG biodistribution 4 h p.i., Pancreas: 1.01 ± 0.18 %ID/g
  ^18F-mFBG biodistribution 4 h p.i., Small intestine: 4.50 ± 0.24^b %ID/g
  ^18F-mFBG biodistribution 4 h p.i., Spleen: 3.19 ± 0.63 %ID/g
